Laboratory results from patent publication US20220402862A1 (Intellia Therapeutics, Inc., priority 2019, published 2022).
Where “and” joins values, the source holds several entries; their conditions need not be identical. Identical values can stand only once.

Legend:
[1] = pKa measurement of unformulated amine lipid (fluorescence, method of Jayaraman et al.); format: physicochemical; conditions: 100 μM in 0.1 M phosphate buffer, pH 2.0-12.0
Description: The pKa of each amine lipid was determined according to the method in Jayaraman, et al. (Angewandte Chemie, 2012) with the following adaptations. […] Lipid was diluted to 100 μM in 0.1 M phosphate buffer (Boston Bioproducts) where the pH ranged from 2.0-12.0. Fluorescence intensity was measured using excitation and emission wavelengths of 321 nm and 448 nm.

[2] = RNA encapsulation efficiency of LNPs (Ribogreen fluorescence assay); format: physicochemical; conditions: LNP; for Encapsulation (%): sg:mRNA 1:1, N/P about 6, amine lipid/DSPC/cholesterol/PEG-2k-DMG 50/9/38/3, Table 2, Experiments 2-20
Outline: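 LNPs were diluted in 1× TE with 0.2% Triton X-100 (total RNA) or without it (free RNA), stained with RiboGreen for ~10 min at room temperature in the dark, and read at Ex 488/Em 525 nm against standard curves of the starting RNA. Encapsulation efficiency = (Total − Free)/Total.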

[3] = system: Transthyretin (TTR); experiment: Serum TTR ELISA in mice after LNP dosing; format: in vivo, CD-1 female mice
Outline: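 Female CD-1 mice, 6–10 weeks, given LNPs by tail-vein injection (~10 mL/kg), 0.1 mg/kg unless noted; serum taken at day 6 or 7 by cardiac puncture. Total mouse TTR by ELISA on sera diluted 10,000-fold (0.1 mg/kg) or 10,000- and 2,500-fold (0.3 mg/kg).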

[4] = system: mouse TTR gene; experiment: In vivo editing in mouse liver, sgRNA targeting TTR (G282 or G502), % indel by NGS; parameters: species or system CD-1 female mice
Description: CD-1 female mice ranging from 6-10 weeks of age were used in each study. Animals were weighed and grouped according to body weight for preparing dosing solutions based on group average weight. LNPs were dosed via the lateral tail vein in a volume of 0.2 mL per animal (approximately 10 mL per kilogram body weight). The animals were periodically observed for adverse effects for at least 24 hours post dose. For studies measuring in vivo editing in liver, CD-1 female mice were dosed at 0.1 mg/kg unless otherwise noted. Animals were euthanized at 6 or 7 days by ex sanguination via cardiac puncture under isoflurane anesthesia. Liver tissue was collected from each animal for DNA extraction and analysis. Blood was collected into serum separator tubes or into tubes containing buffered sodium citrate for plasma as described herein. Cohorts of mice were measured for editing by Next-Generation Sequencing (NGS).
In brief, to quantitatively determine the efficiency of editing at the target location in the genome, genomic DNA was isolated and deep sequencing was utilized to identify the presence of insertions and deletions introduced by gene editing.
PCR primers were designed around the target site (e.g., within B2M), and the genomic area of interest was amplified. Additional PCR was performed according to the manufacturer's protocols (Illumina) to add the necessary chemistry for sequencing. The amplicons were sequenced on an Illumina MiSeq instrument. The reads were aligned to the mouse or rat reference genome (e.g., GRCm38) after eliminating those having low quality scores. The resulting files containing the reads were mapped to the reference genome (BAM files), where reads that overlapped the target region of interest were selected and the number of wild type reads versus the number of reads which contain an insertion, substitution, or deletion was calculated.
The editing percentage (e.g., the “indel efficiency” or “percent indels”) was defined as the total number of sequence reads with insertions or deletions over the total number of sequence reads, including wild type.
We assessed in vivo editing efficiency for materials delivered with formulations including various amine lipid compounds. Editing was measured using either G282 (SEQ ID No: 1) which targets the mouse TTR gene or G650 (SEQ ID No. 2) which targets the mouse B2M gene. Lipids described above were assessed for efficacy through in vivo editing experiments. LNPs were formulated at a 1:1 or 1:1.3 w/w ratio of sgRNA to Cas9 mRNA, and at an N/P ratio of about 6. Molar concentrations of lipids in the lipid component of the LNPs are used at mol % amine lipid/DSPC/cholesterol/PEG-2k-DMG of 50/9/38/3. The final LNPs were characterized to determine the encapsulation efficiency, polydispersity index, and average particle size according to the analytical methods provided above. Analysis of average particle size, polydispersity (PDI), total RNA content and encapsulation efficiency of RNA are shown in Table 2.
To assess whether the editing was dose responsive, experiments were performed in vivo at various LNP dose levels. Cas9 mRNA of Example 120 was formulated as LNPs with an sgRNA targeting TTR (G282, SEQ ID NO: 1; or G502, SEQ ID NO: 4).
We assessed in vivo delivery by measuring editing efficiency for materials delivered with formulations that included various amine lipid compounds. Cas9 mRNA (SEQ ID NO: 6) was formulated as LNPs with an sgRNA targetting the TTR mouse gene (SEQ ID NO: 4). LNPs were formulated at a 1:2 w/w ratio of sgRNA to Cas9 mRNA, and at an N/P ratio of about 6. Molar concentrations of lipids in the lipid component of the LNPs are used at mol % amine lipid/DSPC/cholesterol/PEG-2k-DMG of 50/9/38/3. The final LNPs compositions were characterized and analyzed as described in Example 120. Analysis of average particle size, polydispersity (PDI), total RNA content and encapsulation efficiency of RNA are shown in Table 6.

[5] = Dynamic light scattering of LNPs: Z-average diameter, number average diameter, PDI; format: physicochemical; conditions: LNP
Outline: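 LNP samples were diluted in PBS and measured by DLS to give intensity-based Z-average diameter, number average diameter and polydispersity index. PDI describes size spread around the mean, with zero meaning a uniform population.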

[6] = sg:mRNA 1:2, N/P about 6, 50/9/38/3, TTR sgRNA (SEQ ID NO: 4), Table 6, Experiments 106-107
[7] = mouse serum TTR relative to TSS control, guide G502, i.v. 0.1 mg/kg
[8] = mouse serum, guide G502, i.v. 0.1 mg/kg
[9] = guide G502, i.v. 0.1 mg/kg, sgRNA:Cas9 mRNA 1:2 w/w, experiments 106, 107
[10] = sg:mRNA 1:2, N/P about 6, 50/9/38/3, Table 6, Experiments 106-107
[11] = sg:mRNA 1:1, N/P 6.0, 50/9/38/3, Table 4, Experiments 101-104
[12] = mouse, LNP i.v. 0.1 mg/kg, guide G282, Experiments 101-103
[13] = mouse, LNP i.v. 0.1 mg/kg, guide G282, Experiments 101-103, relative to TSS control
[14] = mouse, LNP i.v. 0.3 mg/kg, guide G282, Experiments 101-103
[15] = mouse, LNP i.v. 0.3 mg/kg, guide G282, Experiments 101-103, relative to TSS control
[16] = LNP i.v. 0.1 mg/kg, guide G282, Experiments 101-103
[17] = LNP i.v. 0.3 mg/kg, guide G282, Experiments 101-103
[18] = sg:mRNA 1:1, N/P about 6, 50/9/38/3, Table 2, Experiments 2-20

SMILES | pKa [1] | % E [2, 6] [%] | Number mean (nm) [5, 10] [nm] | PDI [5, 10] | Z-avg (nm) [5, 10] [nm] | % E [2, 11] [%] | Encapsulation (%) [2] [%] | Number mean (nm) [5, 11] [nm] | PDI [5, 11] | Z-avg (nm) [5, 11] [nm] | Number mean (nm) [5, 18] | Serum TTR % TSS [3, 7] [%] | Serum TTR [3, 8] [µg/mL] | Editing Mean % Indel [4, 9] [%] | Serum TTR [3, 12] [µg/mL] | Serum TTR % TSS [3, 13] [%] | Serum TTR [3, 14] [µg/mL] | Serum TTR % TSS [3, 15] [%] | Editing Mean % Indel [4, 16] [%] | Editing Mean % Indel [4, 17] [%] | also measured
CCCCC/C=C\C/C=C\CCCCCCCC(=O)OCC(COC(=O)CCC(OCCCCCCCC)OCCCCCCCC)COC(=O)NCCN1CCCC1 (stereo not shown) [Compound 100, 3-((4,4-bis(octyloxy)butanoyl)oxy)-2-((((2-(pyrrolidin-1-yl)ethyl)carbamoyl)oxy)methyl)propyl (9Z,12Z)-octadeca-9,12-dienoate] | 7.2 | 99 | 70 | 0.04 | 89 |  |  |  |  |  |  | 81.3 | 1017.4 | 12 |  |  |  |  |  |  | 
CCCCC/C=C\C/C=C\CCCCCCCC(=O)OCC(COC(=O)CCC(OCCCCCCCC)OCCCCCCCC)COC(=O)OCCCN1CCCCC1 (stereo not shown) [Compound 102, 3-((4,4-bis(octyloxy)butanoyl)oxy)-2-((((3-(piperidin-1-yl)propoxy)carbonyl)oxy)methyl)propyl (9Z,12Z)-octadeca-9,12-dienoate] | 5.7 | 98 | 57 | 0.02 | 71 |  |  |  |  |  |  | 62.3 | 728.1 | 19.6 |  |  |  |  |  |  | 

Second part, led by results:

pKa [1] | % E [2, 6] [%] | Number mean (nm) [5, 10] [nm] | PDI [5, 10] | Z-avg (nm) [5, 10] [nm] | % E [2, 11] [%] | Encapsulation (%) [2] [%] | Number mean (nm) [5, 11] [nm] | PDI [5, 11] | Z-avg (nm) [5, 11] [nm] | Number mean (nm) [5, 18] | SMILES | Serum TTR % TSS [3, 7] [%] | Serum TTR [3, 8] [µg/mL] | Editing Mean % Indel [4, 9] [%] | Serum TTR [3, 12] [µg/mL] | Serum TTR % TSS [3, 13] [%] | Serum TTR [3, 14] [µg/mL] | Serum TTR % TSS [3, 15] [%] | Editing Mean % Indel [4, 16] [%] | Editing Mean % Indel [4, 17] [%] | also measured
6.84 |  |  |  |  | 99 | 98 | 70 | 0.003 | 84 | 66.92 nm and 64.63 nm | CCCCC/C=C\C/C=C\CCCCCCCC(=O)OCC(COC(=O)CCCN(CC)CC)COC(=O)CCC(OCCCCCCCC)OCCCCCCCC (stereo not shown) [Compound 29, 3-((4,4-bis(octyloxy)butanoyl)oxy)-2-(((4-(diethylamino)butanoyl)oxy)methyl)propyl (9Z,12Z)-octadeca-9,12-dienoate] |  |  |  | 663 | 48 | 205 | 15 | 31.4 | 54.8 | Z-avg (nm) [5, 18]: 82.41 nm and 78.63 nm
6.4 |  |  |  |  | 98 | 98 | 77.96 | 0.032 | 96.98 | 76.95 nm and 71.8 nm and 78.39 nm | CCCCCC/C=C\COC(=O)CCCCCCCC(=O)OCC(COC(=O)CCC(OCCCCCCCC)OCCCCCCCC)COC(=O)OCCCN(CC)CC (stereo not shown) [Compound 54, (Z)-1-(3-((4,4-bis(octyloxy)butanoyl)oxy)-2-((((3-(diethylamino)propoxy)carbonyl)oxy)methyl)propyl) 9-(non-2-en-1-yl) nonanedioate] |  |  |  | 449 | 49 | 97 | 11 | 28.3 | 64.8 | Z-avg (nm) [5, 18]: 95.76 nm and 89.8 nm and 99.71 nm
5.96 | 97 | 76 | 0.01 | 93 |  |  |  |  |  |  | CCCCCCCC/C=C\CCCCCCCC(=O)OCC(COC(=O)CCC(OCCCCCCCC)OCCCCCCCC)COC(=O)OCCCN(CC)CC (stereo not shown) [Compound 115, 3-((4,4-bis(octyloxy)butanoyl)oxy)-2-((((3-(diethylamino)propoxy)carbonyl)oxy)methyl)propyl oleate] | 73.8 | 816.3 | 19.68 |  |  |  |  |  |  | 
